Test results from patent publication US4241056A, “Penicillins and salts thereof” (Boehringer Ingelheim GmbH, priority 1978, dated 1980).
≈ marks a conversion by molar mass, not a printed value.

Experiments:
Test in all cases: MIC, serial dilution test in the microtiter system
Format in all cases: cell-based
[1] = test system: escherichia coli ATCC 9637; conditions: ATCC9637, 18 h, E. coli ATCC 9637, 37° C., 18-20 hours
Procedure: (§1) The tests were performed according to the method of the serial dilution test in the microtiter system. The effect of the substances on bacteriostasis was examined in a fluid medium. The activity on bacteriostatis was examined at the following concentrations:
(§2) 10 gm of peptone, 8 gm of meat extract-oxoid, 3 gm of sodium chloride, 2 gm of sec. sodium phosphate were diluted with distilled water to 1000 ml (pH 7.2-7.4). Only in the test against streptococci 1% of glucose was added. The age of the primary cultures was about 20 hours. The standardizations of the pathogen suspension was effected by using a photometer according to "Eppendorf" (test tube diameter 14 mm, filter 546 nm) with the aid of the turbidity of a comparison suspension consisting of barium sulfate, this suspension being prepared by addition of 3.0 ml of 1% barium chloride solution to 97 ml of 1% sulfuric acid. After the standardization, streptococcus aronson were further diluted to a concentration of 1:15 and the other germs to a concentration of 1:1500 by menas of a sodium chloride solution.
(§3) 16 mg of the test substance were put into a 10 ml measuring flask and filled up to the mark with the solvent. The further dilution series was standardized with distilled water or the respective solvent.
(§4) The cavities of the microtiter plates were filled with 0.2 ml of nutrient medium. Then, 0.01 ml of the corresponding test substance dilution was added and inoculated with 0.01 ml of the standardized suspension. The bacteria were incubated at 37° C. for 18-20 hours. Control tests merely using the solvent were carried out simultaneously.
(§5) The measurement was carried out macroscopically to determine the minimal inhibitory (threshold) concentration, i.e. the lowest still bacteriostatically effective concentration.
(§6) Staphylococcus aureus SG 511, streptococcus aronson, streptococcus faecalis ATCC 10541, escherichia coli ATCC 9637, 11 775 and escherichia coli 12593/74 (β-lactamase carrier), pseudomonas aeruginosa hamburgensis and ATCC 10145, serratia marcescens ATCC 13 880, klebsiella pneumoniae ATCC 10 031 and 272 and proteus mirabilis hamburgensis.

[2] = test system: pseudomonas aeruginosa hamburgensis; conditions: 18 h, pseud. aerug. hamb., 37° C., 18-20 hours
Procedure: as §1, §2, §3, §4, §5, §6

[3] = test system: escherichia coli 12593/74 (β-lactamase carrier); conditions: 18 h, E. coli 12593/74 (β-lactamase carrier), 37° C., 18-20 hours
Procedure: as §1, §2, §3, §4, §5, §6

streptococcus aronson = conditions: 18 h, strept. aronson, 1% glucose added, 37° C., 18-20 hours
Procedure: as §1, §2, §3, §4, §5, §6

[4] = test system: klebsiella pneumoniae 272; conditions: 18 h, klebs pneum. 272, 37° C., 18-20 hours
Procedure: as §1, §2, §3, §4, §5, §6

[5] = test system: proteus mirabilis hamburgensis; conditions: 18 h, prot. mirabilis, 37° C., 18-20 hours
Procedure: as §1, §2, §3, §4, §5, §6

[6] = test system: serratia marcescens ATCC 13 880; conditions: ATCC13, 18 h, serrat marcesc., 37° C., 18-20 hours
Procedure: as §1, §2, §3, §4, §5, §6

[7] = test system: pseudomonas aeruginosa ATCC 10145; conditions: ATCC10145, 18 h, pseud. aerug. ATCC 10145, 37° C., 18-20 hours
Procedure: as §1, §2, §3, §4, §5, §6

[8] = test system: streptococcus faecalis ATCC 10541; conditions: Enterococcus faecalis, ATCC10541, 18 h; strept. faecal.; 37° C., 18-20 hours
Procedure: as §1, §2, §3, §4, §5, §6

[9] = test system: Staphylococcus aureus SG 511; conditions: SG511, 18 h, Staph. Aureus SG 511, 37° C., 18-20 hours
Procedure: as §1, §2, §3, §4, §5, §6

[10] = test system: escherichia coli ATCC 11775; conditions: ATCC11775, 18 h, E. coli ATCC 11775, 37° C., 18-20 hours
Procedure: as §1, §2, §3, §4, §5, §6

[11] = test system: klebsiella pneumoniae ATCC 10 031; conditions: 18 h, klebs pneum ATCC 10031, 37° C., 18-20 hours
Procedure: as §1, §2, §3, §4, §5, §6

SMILES: CN(C)C(=O)Nc1ncc(NC(=O)N[C@@H](C(=O)N[C@@H]2C(=O)N3[C@@H]2SC(C)(C)[C@@H]3C(=O)O)c2ccc(O)cc2)c(O)n1 [M]
- MIC [1]: 10 µg/mL (≈ 17 µM)
- MIC [2]: 5 µg/mL (≈ 8.49 µM)
- MIC [3]: > 80 µg/mL
- MIC (streptococcus aronson): 0.3 µg/mL (≈ 0.51 µM)
- MIC [4]: > 80 µg/mL
- MIC [5]: 2.5 µg/mL (≈ 4.25 µM)
- MIC [6]: 10 µg/mL (≈ 17 µM)
- MIC [7]: 5 µg/mL (≈ 8.49 µM)
- MIC [8]: 80 µg/mL (≈ 136 µM)
- MIC [9]: 1.25 µg/mL (≈ 2.12 µM)
- MIC [10]: 2.5 µg/mL (≈ 4.25 µM)
- MIC [11]: > 80 µg/mL

SMILES: CNc1ncc(NC(=O)N[C@@H](C(=O)N[C@@H]2C(=O)N3[C@@H]2SC(C)(C)[C@@H]3C(=O)O)c2ccc(O)cc2)c(O)n1 [N, D-α-[3-(4-hydroxy-2-methylamino-5-pyrimidyl)-ureido]-p-hydroxybenzyl-penicillin sodium]
- MIC [1]: 2.5 µg/mL
- MIC [2]: 2.5 µg/mL
- MIC [3]: > 80 µg/mL
- MIC (streptococcus aronson): 0.08 µg/mL
- MIC [4]: 40 µg/mL
- MIC [5]: 0.3 µg/mL
- MIC [6]: 5 µg/mL
- MIC [7]: 2.5 µg/mL
- MIC [8]: 10 µg/mL
- MIC [9]: 0.3 µg/mL
- MIC [10]: 2.5 µg/mL
- MIC [11]: 80 µg/mL

SMILES: CC1(C)S[C@@H]2[C@H](NC(=O)[C@H](NC(=O)Nc3cnc(NCc4ccc(Cl)cc4)nc3O)c3ccc(O)cc3)C(=O)N2[C@H]1C(=O)O [O, D-α-[3-(2-p-chlorobenzylamino-4-hydroxy-5-pyrimidyl)-ureido]-p-hydroxybenzyl-penicillin sodium]
- MIC [1]: 0.3 µg/mL
- MIC [2]: 10 µg/mL
- MIC [3]: 80 µg/mL
- MIC (streptococcus aronson): 0.02 µg/mL
- MIC [4]: 10 µg/mL
- MIC [5]: 0.3 µg/mL
- MIC [6]: 1.25 µg/mL
- MIC [7]: 5 µg/mL
- MIC [8]: 10 µg/mL
- MIC [9]: 0.3 µg/mL
- MIC [10]: 0.65 µg/mL
- MIC [11]: 20 µg/mL

SMILES: CCCNc1ncc(NC(=O)N[C@@H](C(=O)N[C@@H]2C(=O)N3[C@@H]2SC(C)(C)[C@@H]3C(=O)O)c2ccc(O)cc2)c(O)n1 [P, D-α-[3-(4-hydroxy-2-propylamino-5-pyrimidyl)-ureido]-p-hydroxybenzyl-penicillin sodium]
- MIC [1]: 1.25 µg/mL
- MIC [2]: 2.5 µg/mL
- MIC [3]: 80 µg/mL
- MIC (streptococcus aronson): 0.08 µg/mL
- MIC [4]: 10 µg/mL
- MIC [5]: 0.08 µg/mL
- MIC [6]: 1.25 µg/mL
- MIC [7]: 1.25 µg/mL
- MIC [8]: 5 µg/mL
- MIC [9]: 0.3 µg/mL
- MIC [10]: 1.25 µg/mL
- MIC [11]: 10 µg/mL

SMILES: CC1(C)S[C@@H]2[C@H](NC(=O)[C@H](NC(=O)N3CCN(S(C)(=O)=O)C3=O)c3ccccc3)C(=O)N2[C@H]1C(=O)O [R, reference compound]
- MIC [1]: 10 µg/mL (≈ 18.5 µM)
- MIC [2]: 40 µg/mL (≈ 74.1 µM)
- MIC [7]: 20 µg/mL (≈ 37.1 µM)
- MIC [10]: 5 µg/mL (≈ 9.27 µM)

SMILES: CC1(C)S[C@@H]2[C@H](NC(=O)[C@H](NC(=O)Nc3cnccc3O)c3ccccc3)C(=O)N2[C@H]1C(=O)O [S, D-α-[(4-hydroxy-3-pyridyl)-ureido]benzylpenicillin sodium, reference compound]
- MIC [1]: 10 µg/mL
- MIC [2]: 20 µg/mL
- MIC [7]: 20 µg/mL
- MIC [10]: 2.5 µg/mL
